Columns and labels:
Format in all cases: toxicity, cell-based
Fibroblast = assay: Incucyte cell viability with human fibroblast; settings: 10 µM, compound concentration 10 uM
HEK-293T = assay: Incucyte cell viability with HEK293T; settings: human, 10 µM, compound concentration 10 uM
U2OS = assay: Incucyte cell viability with U2OS; settings: human, 10 µM, compound concentration 10 uM
[1] = 6 h, replicate number 1, timepoint 6 hours
[2] = 6 h, replicate number 2, timepoint 6 hours
[3] = 12 h, replicate number 1, timepoint 12 hours
[4] = 12 h, replicate number 2, timepoint 12 hours
[5] = 18 h, replicate number 1, timepoint 18 hours
[6] = 18 h, replicate number 2, timepoint 18 hours
[7] = 24 h, replicate number 1, timepoint 24 hours
[8] = 24 h, replicate number 2, timepoint 24 hours
[9] = 0 h, replicate number 1, timepoint 0 hours
[10] = 0 h, replicate number 2, timepoint 0 hours
Note: unitless GR value; below 1 slowed growth and below 0 cell loss.

SMILES	Growth Rate (Fibroblast; [1])	Growth Rate (Fibroblast; [3])	Growth Rate (Fibroblast; [4])	Growth Rate (Fibroblast; [5])	Growth Rate (Fibroblast; [7])	Growth Rate (HEK-293T; [1])	Growth Rate (HEK-293T; [3])	Growth Rate (HEK-293T; [5])	Growth Rate (HEK-293T; [7])	Growth Rate (U2OS; [9])	Growth Rate (U2OS; [10])	Growth Rate (U2OS; [1])	Growth Rate (U2OS; [2])	Growth Rate (U2OS; [3])	Growth Rate (U2OS; [4])	Growth Rate (U2OS; [5])	Growth Rate (U2OS; [6])	Growth Rate (U2OS; [7])	Growth Rate (Fibroblast; [10])	Growth Rate (HEK-293T; [10])	further results
CC(=O)O[C@H]1C(=O)[C@@]2(C)[C@H]([C@H](OC(=O)c3ccccc3)[C@]3(O)C[C@H](OC(=O)[C@H](O)[C@@H](NC(=O)c4ccccc4)c4ccccc4)C(C)=C1C3(C)C)[C@]1(OC(C)=O)CO[C@@H]1C[C@@H]2O [PACLITAXEL]	-0.93	-0.65	-0.32	-0.57	-0.4	-0.58	-0.24	-0.17	-0.03	-0.24	0.29	0.37	-0.14	0.12	-0.2	0.09	-0.14	0.07			Growth Rate (Fibroblast; [2]): -0.73; Growth Rate (Fibroblast; [6]): 0.02; Growth Rate (Fibroblast; [8]): 0.16; Growth Rate (HEK-293T; [2]): -0.59; Growth Rate (HEK-293T; [4]): -0.18; Growth Rate (HEK-293T; [6]): -0.18; Growth Rate (HEK-293T; [8]): -0.1; Growth Rate (U2OS; [8]): -0.09
Cc1cc(NC(=O)NCCN2CCC(O)(Cc3ccccc3)CC2)c2ccccc2n1 [PALOSURAN]	-0.3	0.72		0.32	0.22	0.95	0.83			0.34	0.13	0.57	0.73	0.33		0.73	0.98	0.87	0.27	-1	Growth Rate (HEK-293T; [9]): 0.55
O=C(O)c1cc2ccccc2c(Cc2c(O)c(C(=O)O)cc3ccccc23)c1O [PAMOIC ACID]		0.52		0.93									0.75						0.41	0.89	Growth Rate (Fibroblast; [9]): -0.13; Growth Rate (HEK-293T; [9]): 0.69
OCCN1CCN(CCCN2c3ccccc3Sc3ccc(Cl)cc32)CC1 [PERPHENAZINE]	-0.61	-0.48	0.42	-0.34	-0.08	0.12	0.59	0.76	0.41				0.28	0.85	0.55		0.64	1			Growth Rate (Fibroblast; [2]): 0.55; Growth Rate (Fibroblast; [6]): 0.44; Growth Rate (Fibroblast; [8]): 0.53; Growth Rate (HEK-293T; [2]): 0.25; Growth Rate (HEK-293T; [4]): 0.45; Growth Rate (HEK-293T; [6]): 0.67; Growth Rate (HEK-293T; [8]): 0.76; Growth Rate (U2OS; [8]): 0.69
CC[C@@H](C)Nc1nc(C)nc2c(-c3ccc(OC)nc3C)c(C)nn12 [PEXACERFONT]	-0.25	-0.18	0.49	-0.19	-0.13			0.93	0.84		-1	1		0.45		0.67			0.28	0.62	Growth Rate (Fibroblast; [2]): -0.51; Growth Rate (Fibroblast; [6]): 0.94; Growth Rate (Fibroblast; [8]): 1; Growth Rate (HEK-293T; [9]): 0.85; Growth Rate (HEK-293T; [4]): 0.9
CC(=O)NCC(=O)N1[C@@H]2CC[C@H]1c1ccc(Nc3ncc(C(F)(F)F)c(NC4CCC4)n3)cc12 [PF-03814735]		0.58		0.72	0.26	-0.73	-0.54	-0.45	-0.31	-0.24				0.23	0.56	0.36	0.22	0.28	-0.37		Growth Rate (Fibroblast; [9]): -0.04; Growth Rate (Fibroblast; [6]): 0.79; Growth Rate (Fibroblast; [8]): 0.62; Growth Rate (HEK-293T; [2]): -0.88; Growth Rate (HEK-293T; [4]): -0.65; Growth Rate (HEK-293T; [6]): -0.48; Growth Rate (HEK-293T; [8]): -0.41; Growth Rate (U2OS; [8]): 0.12
O=C(NCC(=O)N1CC[C@H](N[C@H]2CC[C@@](O)(c3ccc(-c4ncccn4)cn3)CC2)C1)c1cccc(C(F)(F)F)c1 [PF-4136309]	0.01	0.15		0.3	0.41	1	0.73		0.99	0.62			0.3		0.53	1	0.8	0.7	0.71	0.66	Growth Rate (HEK-293T; [2]): 0.86; Growth Rate (U2OS; [8]): 0.9
Cc1cc(-c2ccc3c(c2)CC[C@H]3N2CC3(CCN(C(=O)Cc4cn5cc(C)sc5n4)CC3)C2)ncn1 [PF-5190457]	-0.34	0.22	0.88	0.37	0.57			0.98			-0.98				0.99	0.94			0.62	0.77	
CC(COc1ccccc1)N(CCCl)Cc1ccccc1.Cl (stereo not given) [PHENOXYBENZAMINE HYDROCHLORIDE]	0.45	0.55		0.49	0.51	0.03	0.28	0.49	0.56		0.42					0.94				0.07	Growth Rate (HEK-293T; [6]): 1
CC(C)COc1ccc(CNC(=O)N(Cc2ccc(F)cc2)C2CCN(C)CC2)cc1 [PIMAVANSERIN]	0.97	0.37	-0.05	0.14	0.27	-0.67	-0.29	-0.21	-0.29			0.56	0.04	0.62	0.31	0.57	0.26	0.5			Growth Rate (Fibroblast; [2]): -0.26; Growth Rate (Fibroblast; [8]): 0.26; Growth Rate (HEK-293T; [2]): 0.4; Growth Rate (HEK-293T; [4]): 0.31; Growth Rate (HEK-293T; [6]): 0.1; Growth Rate (HEK-293T; [8]): -0.01; Growth Rate (U2OS; [8]): 0.24
CC(C)NCC(O)COc1cccc2[nH]ccc12 (stereo not given) [PINDOLOL]		0.78		0.94	0.9	0.7		0.97	0.82	-0.36	0.98	0.52		0.93		0.88		0.7	-0.46	-0.05	Growth Rate (Fibroblast; [9]): 0.32; Growth Rate (HEK-293T; [6]): 0.94; Growth Rate (HEK-293T; [8]): 0.98
Cc1noc(C)c1-c1cnc2c(-c3ccc(C(=O)O)cc3)cn([C@@H](C)c3ccccn3)c2c1 [PLX-51107]	0.13		0.99					0.88	0.6	-0.01	-0.06	0.72	0.86	0.5		0.73	0.96	0.96	0.17		Growth Rate (Fibroblast; [2]): 0.81
COc1cc2nc(N3CCN(C(=O)c4ccco4)CC3)nc(N)c2cc1OC.Cl [PRAZOSIN HYDROCHLORIDE]	-0.46	0.21	0.92	0.49	0.44	0.79	0.66	0.88	0.92	-0.45		0.78		0.57	0.91	0.56		0.77			Growth Rate (U2OS; [8]): 0.92
COCCCN1CCC(NC(=O)c2cc(Cl)c(N)c3c2OCC3)CC1 [PRUCALOPRIDE]	0.71	0.6		0.86						0.24			0.76		0.99	0	0.98	0.1	0.89		Growth Rate (Fibroblast; [9]): 0.48; Growth Rate (Fibroblast; [2]): 0.75; Growth Rate (HEK-293T; [4]): 0.99
